Where a SMILES comes first, the peptide text is derived from it. Where no end group is shown, it is not given here. [ ]: non-standard residue; d: D form.
Tests used:
[1] = Stability in human cerebrospinal fluid; format: in vitro ADME; conditions: Example 2, expected
Procedure: (§1) To assess stability in cerebrospinal fluid, spantide or Compound 1 (10 μg/ml) was incubated in human cerebrospinal fluid (0-4 h, 37° C.), and then snap frozen. Proteins were precipitated using ACN. To assess stability in the spinal cord, spantide or Compound 1 was injected intrathecally to mice (10 μM, 5 μl, L3/L4). After 3 hours, a spinal cord segment 5 mm on either side the injection site was removed and snap frozen. Tissues were crushed with a glass rod in a mixture of methanol (30 μl) and EDTA/KF (60 μl, 0.1 M EDTA, 4 g/l KF), vortexed and centrifuged to remove lipids. Peptides were extracted from the pellet with 0.5% formic acid in 75% ACN/H2O (100 μl). Samples were analyzed assayed by LC/MS using a Waters Xevo TQ or TQD triple quadrupole mass spectrometer coupled to a Waters UPLC. Peptides were separated by HPLC (Supelco Ascentis Express Peptide ES C18 column, 50×2.1 mm, 2.7 μm) with 0.05% formic acid in H2O and ACN as solvents. Peptides were quantified by comparison to calibration standards (50-50,000 ng/ml).

[2] = Stability in the spinal cord after intrathecal injection to mice; format: in vivo, mouse; conditions: 10 μM, 5 μl, spinal cord after 3 hours
Procedure: as §1

NK1R = NK1R (Rattus norvegicus, UniProt P14600); assay: SP-stimulated Ca2+ signaling in HEK-NK1R cells, antagonist mode; format: cell-based; parameters: Full length and truncated 6312 rat HA-NK1R have been described; expressed in transfected cells; host or cells: HEK293 (transient)
Sequence of NK1R (P14600 whole entry, the tested form may be a part): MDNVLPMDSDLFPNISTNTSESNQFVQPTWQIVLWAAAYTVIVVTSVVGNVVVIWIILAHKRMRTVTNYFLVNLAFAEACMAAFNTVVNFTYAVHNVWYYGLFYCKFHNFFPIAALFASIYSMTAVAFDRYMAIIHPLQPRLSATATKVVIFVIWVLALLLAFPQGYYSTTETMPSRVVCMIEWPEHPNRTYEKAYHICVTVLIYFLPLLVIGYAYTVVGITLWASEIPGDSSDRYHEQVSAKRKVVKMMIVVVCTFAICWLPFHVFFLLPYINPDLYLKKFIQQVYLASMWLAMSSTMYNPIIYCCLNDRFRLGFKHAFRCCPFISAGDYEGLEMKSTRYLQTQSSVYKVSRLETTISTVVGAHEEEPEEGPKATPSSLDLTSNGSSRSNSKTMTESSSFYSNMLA
Procedure: [Ca^2+]i was measured as described (Jensen, D. D. et al., J Biol Chem, 2014, 289, 20283-20294). HEK293 cells transiently expressing HA-NK1R or HA-CLR/Myc-RAMP1 were loaded with Fura2-AM (2 μM).

[3] = system: NK1R-positive neurons in lamina I of the dorsal horn; assay: Cell-attached patch clamp recordings in rat spinal cord slices; format: cell-based; conditions: SP 1 μM, 2 min
Procedure: To evaluate whether NK1R endosomal signaling mediates this sustained activation, cell-attached patch clamp recordings were made from NKiR-positive neurons in lamina I of the dorsal horn in slices of rat spinal cord. […] These findings support a role for NK1R endocytosis in persistent neuronal excitation.
Parasagittal slices (340-400 μm) were prepared using a vibratome from the lumbar region of the rat spinal cord in ice-cold sucrose-based artificial CSF (sACSF) (mM: 100 sucrose, 63 NaCl, 2.5 KCl, 1.2 NaH2PO4, 1.2 MgCl2, 25 glucose, 25 NaHCO3; 95% O2/5% CO2). Slices were transferred to N-Methyl-D-Glucamine (NMDG)-based recovery ACSF (rACSF) (mM: 93 NMDG, 93 HCl, 2.5 KCl, 1.2 NaH2PO4, 30 NaHCO3, 20 HEPES, 25 glucose, 5 Na ascorbate, 2 thiourea, 3 Na pyruvate, 10 MgSO4, 0.5 CaCl2; 95% O2/5% CO2, 15 min, 34° C.). Slices were transferred to normal ACSF (mM: 125 NaCl, 2.5 KCl, 1.25 NaH2PO4, 1.2 MgCl2, 2.5 CaCl2, 25 glucose, 11 NaHCO3; 95% O2/5% CO2) containing 10 μM MK-801 (45 min, 34° C.), then maintained at RT.
Slices of rat spinal cord were transferred to a recording chamber and superfused with normal ACSF (2 ml·min^−1, 36° C.). […] PS2 was not soluble in the low concentrations of DMSO required for electrophysiology. Large, NKiR-positive, presumed nociceptive lamina I neurons were visually identified as described (Imlach, W. L., et al., Molecular Pharmacology, 2015, 88, 460-428). Spontaneous currents were recorded in cell-attached configuration (Multiclamp 700B, Molecular Devices, Sunnyvale, Calif.), sampled at 10 kHz, high pass filtered at 1 Hz, and capacitatively coupled action potential events were analyzed using Axograph X, V 1.4.4 (Axograph). Patch electrodes (resistance 2.5-3.5 MQ) contained KMES-based internal solution (mM: 105 KMES, 20 NaCl, 5 HEPES, 10 BAPTA, 1.5 MgCl2, 4 MgATP, 0.4 NaGTP, 0.1% biocytin; 285-295 mosmol·l^−1) to facilitate subsequent recordings of action potential properties in whole-cell configuration. Recordings were made in the presence of CNQX (6-cyano-7-nitroquinoxaline-2,3-dione) (10 μM; AMPA/kainate receptor antagonist), picrotoxin (100 μM; GABAA receptor antagonist), strychnine (0.5 μM; glycine and acetylcholine receptor antagonist), and AP5 ((2R)-amino-5-phosphonovaleric acid; (2R)-amino-5-phosphonopentanoate) (100 μM; NMDA receptor antagonist) to minimize presynaptic influences on action potential properties. […] Recordings were sampled at 10 kHz and filtered with a high pass filter at 1 Hz and firing rate was measured in two-minute interval bins. At the end of each cell-attached recording, whole-cell recordings were made in current-clamp mode to confirm retention of normal action potential firing. Data were only included in the analysis if cells had action potential amplitudes that were ≥50 mV above threshold to ensure viable neurons were included. Cells were filled with biocytin and sections were processed to confirm NK1R expression by immunofluorescence. […] The firing time was determined as the duration of the response to last action potential. To assess synaptic transmission, whole-cell configuration recordings were made under control conditions or after exposure to Dy4 or Dy4 inact; a bipolar stimulating electrode was placed at the dorsal root entry zone, and electrically-evoked excitatory postsynaptic currents recorded as described (Imlach, W. L., et al., Molecular Pharmacology, 2015, 88, 460-428).

Gαq = assay: BRET of Gαq activation and trafficking in HEK293 cells; format: cell-based; conditions: SP 0.1-10 nM, 15 min
Procedure: Since PKC and cAMP signaling via GPCRs depends on heterotrimeric G-proteins, the capacity of SP to activate G-proteins in endosomes of HEK293 cells was examined. BRET was used to determine the proximity of the NK1R and Gαq to Rab5a and Gγ2. SP (0.1-10 nM) decreased NK1R-RLuc8/KRas-Venus BRET, which mirrored the increase in NK1R-RLuc8/Rab5a-Venus BRET (FIG. 3A, B). […] Immunofluorescence and super-resolution microscopy were used to determine whether Gαq co-localized with the NK1R at the plasma membrane or in endosomes of HEK-NK1R cells. After incubation with SP (10 nM) at 4° C., NK1R immunoreactivity (NK1R-IR) and Gαq-IR were colocalized at the plasma membrane. After washing and warming to 37° C. for 15 min, NK1R-IR and Gαq-IR were co-localized with early endosomal antigen 1 (EEA1) (data not shown). Thus, SP activates this G protein complex by its dissociation and recruits Gαq to endosomes.
HEK293 cells were transfected with the following cDNAs: 1 μg NK1R-RLuc8 or 1 μg CLR-RLuc8+1 μg Myc-RAMP1+4 μg KRas-Venus, 4 μg Rab5a-Venus, 4 μg βarr1-YFP, or 4 μg βarr2-YFP; or 1 μg NK1R+0.5 μg Gαq-RLuc8+1 μg Gβ1+4 μg Gγ2-Venus; or 1 μg NK1R+0.5 μg Gαq-RLuc8+1 μg Gβ1+1 μg Gγ2+4 μg Rab5a-Venus. […] BRET ratios were determined using a microplate reader LUMIstar Omega (BMG LabTech) before and after challenge with SP (0.1-10 nM) or vehicle (dH2O).

| Molecule | time stable in human CSF [1] | stability after intrathecal injection to mice [2] | IC50 (NK1R) | firing of action potentials [3] | Gαq-RLuc8/Gγ2-Venus BRET (Gαq) | Gαq-RLuc8/Rab5a-Venus BRET (Gαq) |
| --- | --- | --- | --- | --- | --- | --- |
| CC(C)C[C@H](NC(=O)[C@H](CC(C)C)NC(=O)[C@@H](Cc1c[nH]c2ccccc12)NC(=O)[C@H](Cc1ccccc1)NC(=O)[C@@H](Cc1c[nH]c2ccccc12)NC(=O)[C@H](CCC(N)=O)NC(=O)[C@H](CCC(N)=O)NC(=O)[C@@H]1CCCN1C(=O)[C@H](CCCCN)NC(=O)[C@@H]1CCCN1C(=O)[C@H](N)CCCN=C(N)N)C(N)=O [spantide, ^DArg-Pro-Lys-Pro-Gln-Gln-^DTrp-Phe-^DTrp-Leu-Leu-NH2] (H-[dR]PKPQQ[dW]F[dW]LL-NH2) | > 4 h | extensively metabolized | 5.89 nM |  |  |  |
| SP: substance P, NK1R agonist used as stimulus (RPKPQQFFGLM-NH2; ends and bridges not checked; UniProt P20366 58-68, looked up) |  |  |  | triggered a rapid onset firing of action potentials that was sustained after washout | decreased Gαq-RLuc8/Gγ2-Venus BRET | increased Gαq-RLuc8/Rab5a-Venus BRET |

— US11324832B2, “Tripartite modulators of endosomal G protein-coupled receptors” (Endosome Therapeutics, Inc., priority 2015, dated 2022)
